Source: patent publication US4560557A, “Silicon and sulfur steroids as irreversible inhibitors of hormone biosynthesis” (University Patents, Inc., priority 1983, dated 1985)

Legend:
[1] = tested on: human adrenal cells; experiment: ACTH-stimulated cortisol production by human adrenal cell suspensions; assay type: cell-based; settings: for time dependence of inhibition of cortisol production: FIG. 4, FIG. 5; for inhibition of ACTH-stimulated cortisol production: human cells
Source text: (§1) Additionally data showing that the silicon and sulfur-containing compounds of the present invention are effective at halting steroid hormone biosynthesis when given at low concentrations to suspensions of human and rat adrenal cells are depicted in the following figures and table.

[2] = tested on: rat adrenal cells; experiment: Time and concentration dependence of effects on ACTH-stimulated corticosterone production by rat adrenal cells; assay type: cell-based; settings: for time dependence of inhibition of corticosterone production: FIG. 2, FIG. 3; for inhibition of ACTH-stimulated corticosterone production: rat cells
Protocol: as §1
Steroid was added at […]. […] At 10 μM 20 OH TMS steroid, corticosterone production is obliterated by 40 min.
Steroid was added at t=-10 min.

[3] = tested on: cytochrome P-450 cholesterol side chain cleavage enzyme (P-450scc); experiment: P-450scc inactivation, preincubation study (pregnenolone formation from [3H]cholesterol); assay type: biochemical; settings: NADPH and/or O2, FIG. 1: P450 1.35 μM, steroid 20 μM
Protocol: As mentioned previously, the compounds of the present invention are potent inhibitors of the conversion of cholesterol to pregnenolone.
The final turnover mixture contained 2.5 μM adrenodoxin, 150 nM adrenodoxin reductase, 50 mM K^+ MOPS (pH 7.2), 10 mM MgCl2, 0.2% Tween 20, 1 unit/mL catalase, a NADPH-generating system of 16 μM NADPH, 3 mM G6P, and 1 unit/mL […]. For a typical preincubation experiment, inhibitor was added as an ethanol solution (2-10 mM) into the P-450 turnover mixture at 37° C. and the reactions were started by addition of NADPH stock solution. After, 0, 5, 10, 15, 30, or 45 min. of incubation, an aliquot of this mixture (200μ) was introduced into 1.8 ml of the turnover mixture containing [1, 2-^3 H] cholesterol (100 μM 10,000 dpm/nmol). After 10 min., the reaction was terminated by acidification, and [4-^- C] prengenolone were added as an internal standard. The resulting mixture was extracted using ethyl acetate and evaporated to dryness. The product pregnenolone was separated on silica gel TLC plates (Baker-flex) using 1:1 ethyl acetate-hexane as the solvent. The product formation was determined from the ratio of ^3 H to ^14 C in the recovered pregnenolone.
The P450 concentration was 1.35 μM and the steroid was 20 μM=NADPH; 0=no inhibitor+NADPH; 0=NADPH.

[4] = tested on: rat adrenocortical cells; experiment: Effects of cholesterol analogues on adrenal cell corticosterone production (with or without ACTH); assay type: cell-based
Source text: When rat adrenocortical cells were stimulated with ACTH in the presence of the P-450 scc inhibitors of the present invention, and the production of cortiscoterone measured, less corticosterone was produced in the presence of the compounds of the present invention, then when those compounds were absent.
Corticosterone production rates by non-stimulated rat adrenal cell suspensions are approximately one-fifth those of ACTH stimulated rates. […] This property, combined with P-450 scc inhibitors with and without polar side chains was used to determine how ACTH stimulation results in increased conversion of endogenous cholesterol to corticosterone.
Cells (30,000/ml) were preincubated with steroid for 10 minutes.
Maximally stimulating levels of ACTH were then added and the
incubation continued for another 60 minutes. The incubations were
then quenched, and samples assayed for
corticosterone fluorometrically.

[5] = ACTH + steroid 2 ug/ml, ACTH only = 100, 10 min preincubation, 60 min incubation
[6] = FIG. 5, 10 μM for the 20(S) compound

Compound | inhibition of cortisol production ([1]; FIG. 4) | time dependence of inhibition of corticosterone production [2] | inhibition of ACTH-stimulated corticosterone production [2] | time dependence of inhibition of cortisol production [1] | inhibition of ACTH-stimulated cortisol production [1] | CORTICOSTERONE PRODUCED (%) [4, 5] [%] | inhibition of cortisol production [1, 6] | further results
22 (trimethylisilyl pregnenol) | little inhibitory effect on cortisol production |  |  |  |  |  |  | 
C[C@]12CC[C@H]3[C@@H](CC=C4C[C@@H](O)CC[C@@]43C)[C@@H]1CC[C@@H]2[C@@](C)(O)CC[Si](C)(C)C [20 OH TMS, 20-(2-Trimethylsilyl-ethyl) pregnen-3, 20a-diol] | strongly inhibits cortisol production | strongly time dependent | inhibits | probably in a time dependent manner | inhibits |  |  | corticosterone production ([2]; 10 μM steroid, by 40 min (FIG. 2)): obliterated; loss of enzyme activity / P-450 scc inhibition [3]: P-450 scc inhibition; loss of enzyme activity / P-450 scc inhibition ([3]; listed as trimethyl silyl-containing compound): time-dependent loss of enzyme activity
CC(C)CCS[C@H](C)[C@H]1CC[C@H]2[C@@H]3CC=C4C[C@@H](O)CC[C@]4(C)[C@H]3CC[C@]12C [20(R)22 thiacholesterol] |  |  |  | not time dependent |  | 117.9 | inhibited slightly | 
CC(C)CCS[C@@H](C)[C@H]1CC[C@H]2[C@@H]3CC=C4C[C@@H](O)CC[C@]4(C)[C@H]3CC[C@]12C [20(S)22 thiacholesterol] |  | only slightly time dependent | inhibits | probably in a time dependent manner | inhibits | 54.1 | strongly inhibited | concentration dependence of inhibition of corticosterone production ([2]; FIG. 3): strongly concentration dependent; CORTICOSTERONE PRODUCED (%) ([4]; 25 hydroxycholesterol 5 ug/ml + 20(S)22 thialcholesterol 5 ug/ml, without ACTH, ACTH only = 100, 60 min): 15.5%; corticosterone production (in words) ([4]; ACTH-stimulated cells): decreased corticosterone production
C[C@H](CCCC(C)(C)O)[C@H]1CC[C@H]2[C@@H]3CC=C4C[C@@H](O)CC[C@]4(C)[C@H]3CC[C@]12C [25 hydroxycholesterol, reference compound] |  |  |  |  |  | 117.0 |  | activity at 2 µg/mL ([4]; Rattus norvegicus, 1 h, steroid 2 ug/ml without ACTH, ACTH only = 100, read-out: CORTICOSTERONE PRODUCED (%)): 21.9%; activity at 5 µg/mL ([4]; Rattus norvegicus, 1 h, steroid 5 ug/ml without ACTH, ACTH only = 100, read-out: CORTICOSTERONE PRODUCED (%)): 30.4%; corticosterone production rate relative to ACTH stimulated cells ([4]; non-stimulated cells): as much as one-half those of ACTH stimulated cells
